Assay results from patent publication US20240132431A1, “METHOD FOR ALKYLATING ACIDIC FUNCTIONAL GROUP” (Chugai Seiyaku Kabushiki Kaisha, priority 2021, published 2024).

Target: T1, Bcl-2 protein (Recombinant Human Bcl-2 Protein) (Homo sapiens, UniProt P10415)
T1 construct: purchased Novus NBP2-34889
Assay: Binding evaluation of mixture library compounds to Bcl-2 using AS-MS (affinity selection mass spectrometry)
Conditions: AS-MS, mixture library, Bcl-2, ASMS Ratio(%)=(A−C)/B×100; for ASMS ratio (%) n = 1: replicate n = 1; for ASMS ratio (%) n = 2: replicate n = 2
Procedure, shortened: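 Affinity selection MS: Bcl-2 20 μM + 1200-cpd mixture, […]/cpd, Tris pH 7.4 buffer w/ Tween-20, DTT; 1 h 23° C dark; P-2 spin SEC; MeCN/MeOH extraction; RP LC/MS. ASMS Ratio(%) = (A−C)/B×100.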

T1 sequence (P10415 whole entry): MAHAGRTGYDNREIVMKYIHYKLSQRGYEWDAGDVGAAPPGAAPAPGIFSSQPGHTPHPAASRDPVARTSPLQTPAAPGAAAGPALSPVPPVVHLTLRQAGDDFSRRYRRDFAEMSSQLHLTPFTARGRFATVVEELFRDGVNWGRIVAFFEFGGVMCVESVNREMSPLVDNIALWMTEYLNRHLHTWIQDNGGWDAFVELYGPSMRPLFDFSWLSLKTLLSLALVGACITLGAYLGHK

SMILES	ASMS ratio (%) n = 1	ASMS ratio (%) n = 2
CCOc1cncc(-c2csc(C(=O)N3CCN(c4ccc(C(=O)NS(=O)(=O)c5ccc(NCCSc6ccccc6)c([N+](=O)[O-])c5)nn4)CC3)c2)c1 [B2Q002-01, 6-[4-[4-(5-Ethoxypyridin-3-yl)thiophene-2-carbonyl]piperazin-1-yl]-N-[3-nitro-4-(2-phenylsulfanylethylamino)phenyl]sulfonylpyridazine-3-carboxamide]	24.5%	17.2%
CCOc1cccc(-c2ccc(C(=O)N3CCN(c4ccc(C(=O)NS(=O)(=O)c5ccc(NCCSc6ccccc6)c([N+](=O)[O-])c5)nn4)CC3)cc2C)c1 [B2Q003-01, 6-[4-[4-(3-Ethoxyphenyl)-3-methylbenzoyl]piperazin-1-yl]-N-[3-nitro-4-(2-phenylsulfanylethylamino)phenyl]sulfonylpyridazine-3-carboxamide]	8.2%	6.9%
CCOc1cncc(-c2ccc(C(=O)N3CCN(c4ccc(C(=O)NS(=O)(=O)c5ccc(NCCSc6ccccc6)c([N+](=O)[O-])c5)nn4)CC3)cc2C)c1 [B2Q004-01, 6-[4-[4-(5-Ethoxypyridin-3-yl)-3-methylbenzoyl]piperazin-1-yl]-N-[3-nitro-4-(2-phenylsulfanylethylamino)phenyl]sulfonylpyridazine-3-carboxamide]	10.7%	8.7%
CCOc1cccc(-c2ccc(C(=O)N3CCN(c4ccc(C(=O)NS(=O)(=O)c5ccc(NCCSc6ccccc6)c([N+](=O)[O-])c5)nn4)CC3)cc2F)c1 [B2Q005-01, 6-[4-[4-(3-Ethoxyphenyl)-3-fluorobenzoyl]piperazin-1-yl]-N-[3-nitro-4-(2-phenylsulfanylethylamino)phenyl]sulfonylpyridazine-3-carboxamide]	12.5%	15.3%
CCOc1cccc(-c2ccccc2CCC(=O)N2CCN(c3ccc(C(=O)NS(=O)(=O)c4ccc(NCCSc5ccccc5)c([N+](=O)[O-])c4)nn3)CC2)c1 [B2Q011-01, 6-[4-[3-[2-(3-Ethoxyphenyl)phenyl]propanoyl]piperazin-1-yl]-N-[3-nitro-4-(2-phenylsulfanylethylamino)phenyl]sulfonylpyridazine-3-carboxamide]	25.0%	−1.1%
CCOc1cccc(-c2ccc(C(=O)N3CCN(c4ccc(C(=O)NS(=O)(=O)c5ccc(NCCSc6ccccc6)c([N+](=O)[O-])c5)nn4)CC3)c3ccccc23)c1 [B2Q013-01, 6-[4-[4-(3-Ethoxyphenyl)naphthalene-1-carbonyl]piperazin-1-yl]-N-[3-nitro-4-(2-phenylsulfanylethylamino)phenyl]sulfonylpyridazine-3-carboxamide]	0.0%	0.0%
CCOc1cncc(-c2ccc(C(=O)N3CCN(c4ccc(C(=O)NS(=O)(=O)c5ccc(NCCSc6ccccc6)c([N+](=O)[O-])c5)nn4)CC3)c3ccccc23)c1 [B2Q014-01, 6-[4-[4-(5-Ethoxypyridin-3-yl)naphthalene-1-carbonyl]piperazin-1-yl]-N-[3-nitro-4-(2-phenylsulfanylethylamino)phenyl]sulfonylpyridazine-3-carboxamide]	9.3%	14.5%
CCOc1cccc(-c2cc(C(=O)N3CCN(c4ccc(C(=O)NS(=O)(=O)c5ccc(NCCSc6ccccc6)c([N+](=O)[O-])c5)nn4)CC3)cc(C(C)(C)C)c2)c1 [B2Q015-01, 6-[4-[3-tert-Butyl-5-(3-ethoxyphenyl)benzoyl]piperazin-1-yl]-N-[3-nitro-4-(2-phenylsulfanylethylamino)phenyl]sulfonylpyridazine-3-carboxamide]	17.1%	13.2%
CCOc1cncc(-c2cc(C(=O)N3CCN(c4ccc(C(=O)NS(=O)(=O)c5ccc(NCCSc6ccccc6)c([N+](=O)[O-])c5)nn4)CC3)cc(C(C)(C)C)c2)c1 [B2Q016-01, 6-[4-[3-tert-Butyl-5-(5-ethoxypyridin-3-yl)benzoyl]piperazin-1-yl]-N-[3-nitro-4-(2-phenylsulfanylethylamino)phenyl]sulfonylpyridazine-3-carboxamide]	10.6%	6.5%
CCOc1cccc(-c2cc(C(=O)N3CCN(c4ccc(C(=O)NS(=O)(=O)c5ccc(NCCSc6ccccc6)c([N+](=O)[O-])c5)nn4)CC3)cc(C(F)(F)F)c2)c1 [B2Q017-01, 6-[4-[3-(3-Ethoxyphenyl)-5-(trifluoromethyl)benzoyl]piperazin-1-yl]-N-[3-nitro-4-(2-phenylsulfanylethylamino)phenyl]sulfonylpyridazine-3-carboxamide]	12.8%	0.2%
CCOc1cncc(-c2cc(C(=O)N3CCN(c4ccc(C(=O)NS(=O)(=O)c5ccc(NCCSc6ccccc6)c([N+](=O)[O-])c5)nn4)CC3)cc(C(F)(F)F)c2)c1 [B2Q018-01, 6-[4-[3-(5-Ethoxypyridin-3-yl)-5-(trifluoromethyl)benzoyl]piperazin-1-yl]-N-[3-nitro-4-(2-phenylsulfanylethylamino)phenyl]sulfonylpyridazine-3-carboxamide]		0.0%
CCOc1cccc(-c2cnn(-c3cc(C(=O)N4CCN(c5ccc(C(=O)NS(=O)(=O)c6ccc(NCCSc7ccccc7)c([N+](=O)[O-])c6)nn5)CC4)cc(C(F)(F)F)c3)c2)c1 [B2Q021-01, 6-[4-[3-[4-(3-Ethoxyphenyl)pyrazol-1-yl]-5-(trifluoromethyl)benzoyl]piperazin-1-yl]-N-[3-nitro-4-(2-phenylsulfanylethylamino)phenyl]sulfonylpyridazine-3-carboxamide]	0.0%	0.0%
CCOc1cncc(-c2cnn(-c3cc(C(=O)N4CCN(c5ccc(C(=O)NS(=O)(=O)c6ccc(NCCSc7ccccc7)c([N+](=O)[O-])c6)nn5)CC4)cc(C(F)(F)F)c3)c2)c1 [B2Q022-01, 6-[4-[3-[4-(5-Ethoxypyridin-3-yl)pyrazol-1-yl]-5-(trifluoromethyl)benzoyl]piperazin-1-yl]-N-[3-nitro-4-(2-phenylsulfanylethylamino)phenyl]sulfonylpyridazine-3-carboxamide]	13.8%	23.6%

Second part, the compound after the results:

ASMS ratio (%) n = 1	ASMS ratio (%) n = 2	SMILES
9.5%	2.2%	CCOc1cncc(-c2ccc(C(=O)N3CCN(c4ccc(C(=O)NS(=O)(=O)c5ccc(NCCSc6ccccc6)c([N+](=O)[O-])c5)nn4)CC3)cc2F)c1 [B2Q006-01, 6-[4-[4-(5-Ethoxypyridin-3-yl)-3-fluorobenzoyl]piperazin-1-yl]-N-[3-nitro-4-(2-phenylsulfanylethylamino)phenyl]sulfonylpyridazine-3-carboxamide]
4.2%	−8.3%	CCOc1cccc(C#Cc2ccccc2C(=O)N2CCN(c3ccc(C(=O)NS(=O)(=O)c4ccc(NCCSc5ccccc5)c([N+](=O)[O-])c4)nn3)CC2)c1 [B2Q007-01, 6-[4-[2-[2-(3-Ethoxyphenyl)ethynyl]benzoyl]piperazin-1-yl]-N-[3-nitro-4-(2-phenylsulfanylethylamino)phenyl]sulfonylpyridazine-3-carboxamide]
16.5%	0.5%	CCOc1cncc(C#Cc2ccccc2C(=O)N2CCN(c3ccc(C(=O)NS(=O)(=O)c4ccc(NCCSc5ccccc5)c([N+](=O)[O-])c4)nn3)CC2)c1 [B2Q008-01, 6-[4-[2-[2-(5-Ethoxypyridin-3-yl)ethynyl]benzoyl]piperazin-1-yl]-N-[3-nitro-4-(2-phenylsulfanylethylamino)phenyl]sulfonylpyridazine-3-carboxamide]
16.5%	0.5%	CCOc1cccc(C#Cc2cncc(C(=O)N3CCN(c4ccc(C(=O)NS(=O)(=O)c5ccc(NCCSc6ccccc6)c([N+](=O)[O-])c5)nn4)CC3)c2)c1 [B2Q009-01, 6-[4-[5-[2-(3-Ethoxyphenyl)ethynyl]pyridine-3-carbonyl]piperazin-1-yl]-N-[3-nitro-4-(2-phenylsulfanylethylamino)phenyl]sulfonylpyridazine-3-carboxamide]
13.3%	8.9%	CCOc1cncc(C#Cc2cncc(C(=O)N3CCN(c4ccc(C(=O)NS(=O)(=O)c5ccc(NCCSc6ccccc6)c([N+](=O)[O-])c5)nn4)CC3)c2)c1 [B2Q010-01, 6-[4-[5-[2-(5-Ethoxypyridin-3-yl)ethynyl]pyridine-3-carbonyl]piperazin-1-yl]-N-[3-nitro-4-(2-phenylsulfanylethylamino)phenyl]sulfonylpyridazine-3-carboxamide]
0.7%	14.1%	CCOc1cccc(C#Cc2cc(C(=O)N3CCN(c4ccc(C(=O)NS(=O)(=O)c5ccc(NCCSc6ccccc6)c([N+](=O)[O-])c5)nn4)CC3)cc(C(F)(F)F)c2)c1 [B2Q019-01, 6-[4-[3-[2-(3-Ethoxyphenyl)ethynyl]-5-(trifluoromethyl)benzoyl]piperazin-1-yl]-N-[3-nitro-4-(2-phenylsulfanylethylamino)phenyl]sulfonylpyridazine-3-carboxamide]
6.1%	5.6%	CCOc1cncc(C#Cc2cc(C(=O)N3CCN(c4ccc(C(=O)NS(=O)(=O)c5ccc(NCCSc6ccccc6)c([N+](=O)[O-])c5)nn4)CC3)cc(C(F)(F)F)c2)c1 [B2Q020-01, 6-[4-[3-[2-(5-Ethoxypyridin-3-yl)ethynyl]-5-(trifluoromethyl)benzoyl]piperazin-1-yl]-N-[3-nitro-4-(2-phenylsulfanylethylamino)phenyl]sulfonylpyridazine-3-carboxamide]
